Patent US20260138976A1 (Hoffmann-La Roche Inc., priority 2022, published 2026)

Tested on: primary human T-cells
Test: IL2 secretion measurements (24 h, CD3-stimulated T-cells, PBS counter screen)
Format: cell-based
Details: for Emax IL2 (% activation): CD3 condition, normalised to DMSO (neutral) and 20 μM reference compound A1 = 100%; for EC50: Homo sapiens, T-cell, CD3-stimulated primary human T-cells, IL2 secretion, fitted sigmoidal curve, read-out: Tcell IL2 CD3 EC50
How it was run: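 Expanded primary human T-cells (100k/well) were plated on anti-CD3-coated or PBS-only plates with compound in a 5–6 point dose response (top 20 or 10 μM final, 3.333-fold, 0.2% DMSO). IL-2 in 24 h supernatants was quantified by ProQuantum immunoassay or ELISA. Values were normalized to DMSO and 20 μM reference compound A1 (100%), giving EC50 and Emax.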

SMILES: CC(C)(C)C(N)c1nnc(-c2ccc3c(c2)N(Cc2ccc(-c4noc(C(F)(F)F)n4)cc2)C(=O)[C@@H](N)CS3(=O)=O)o1 (stereo partly drawn) [Example 34, (3R)-3-amino-7-[5-(1-amino-2,2-dimethyl-propyl)-1,3,4-oxadiazol-2-yl]-1,1-dioxo-5-[[4-[5-(trifluoromethyl)-1,2,4-oxadiazol-3-yl]phenyl]methyl]-2,3-dihydro-1λ^6,5-benzothiazepin-4-one]
- Emax IL2 (% activation): 69 % activation
- EC50: 4900 nM

SMILES: CC(C#N)c1nnc(-c2ccc3c(c2)N(Cc2ccc(-c4noc(C(F)(F)F)n4)cc2)C(=O)[C@@H](N)CS3(=O)=O)o1 (stereo partly drawn) [Example 35, 2-[5-[(3R)-3-amino-1,1,4-trioxo-5-[[4-[5-(trifluoromethyl)-1,2,4-oxadiazol-3-yl]phenyl]methyl]-2,3-dihydro-1λ^6,5-benzothiazepin-7-yl]-1,3,4-oxadiazol-2-yl]propanenitrile]
- Emax IL2 (% activation): 193 % activation
- EC50: 2150 nM

SMILES: COC(F)(c1nnc(-c2ccc3c(c2)N(Cc2ccc(-c4noc(C(F)(F)F)n4)cc2)C(=O)[C@@H](N)CS3(=O)=O)o1)C(F)(F)F (stereo partly drawn) [Example 37, (3R)-3-amino-1,1-dioxo-7-[5-(1,2,2,2-tetrafluoro-1-methoxy-ethyl)-1,3,4-oxadiazol-2-yl]-5-[[4-[5-(trifluoromethyl)-1,2,4-oxadiazol-3-yl]phenyl]methyl]-2,3-dihydro-1λ^6,5-benzothiazepin-4-one]
- Emax IL2 (% activation): 198 % activation
- EC50: 338 nM

SMILES: CC(C)(C#N)c1nnc(-c2ccc3c(c2)N(Cc2ccc(-c4noc(C(F)(F)F)n4)cc2)C(=O)[C@@H](N)CS3(=O)=O)o1 [Example 38, 2-[5-[(3R)-3-amino-1,1,4-trioxo-5-[[4-[5-(trifluoromethyl)-1,2,4-oxadiazol-3-yl]phenyl]methyl]-2,3-dihydro-1λ^6,5-benzothiazepin-7-yl]-1,3,4-oxadiazol-2-yl]-2-methyl-propanenitrile]
- Emax IL2 (% activation): 311 % activation
- EC50: 3110 nM

SMILES: N[C@H]1CS(=O)(=O)c2ccc(-c3nnc(C4(N)CCCCC4)o3)cc2N(Cc2ccc(-c3ccc(C(F)(F)F)cn3)cc2)C1=O [Example 41, (3R)-3-amino-7-[5-(1-aminocyclohexyl)-1,3,4-oxadiazol-2-yl]-1,1-dioxo-5-[[4-[5-(trifluoromethyl)-2-pyridyl]phenyl]methyl]-2,3-dihydro-1λ^6,5-benzothiazepin-4-one]
- Emax IL2 (% activation): 66 % activation
- EC50: 3340 nM

SMILES: N[C@H]1CS(=O)(=O)c2ccc(-c3nnc(C4(N)CCCCC4)o3)cc2N(Cc2ccc(-c3ccc(C(F)(F)F)cc3)cc2)C1=O [Example 42, (3R)-3-amino-7-[5-(1-aminocyclohexyl)-1,3,4-oxadiazol-2-yl]-1,1-dioxo-5-[[4-[4-(trifluoromethyl)phenyl]phenyl]methyl]-2,3-dihydro-1λ^6,5-benzothiazepin-4-one]
- Emax IL2 (% activation): 128 % activation
- EC50: 1390 nM

SMILES: COc1ccc(-c2ccc(CN3C(=O)[C@@H](N)CS(=O)(=O)c4ccc(-c5nnc(C6(N)CCCCC6)o5)cc43)cc2)cc1 [Example 43, (3R)-3-amino-7-[5-(1-aminocyclohexyl)-1,3,4-oxadiazol-2-yl]-5-[[4-(4-methoxyphenyl)phenyl]methyl]-1,1-dioxo-2,3-dihydro-1λ^6,5-benzothiazepin-4-one]
- Emax IL2 (% activation): 89 % activation
- EC50: 771 nM

SMILES: COc1ccc(-c2ccc(CN3C(=O)[C@@H](N)CS(=O)(=O)c4ccc(-c5nnc(C6(F)CCCN(C)C6)o5)cc43)cc2)cc1 (stereo partly drawn) [Example 50, (3R)-3-amino-7-[5-(3-fluoro-1-methyl-3-piperidyl)-1,3,4-oxadiazol-2-yl]-5-[[4-(4-methoxyphenyl)phenyl]methyl]-1,1-dioxo-2,3-dihydro-1λ^6,5-benzothiazepin-4-one]
- Emax IL2 (% activation): 119 % activation
- EC50: 3600 nM

SMILES: CN1CCCC(F)(c2nnc(-c3ccc4c(c3)N(Cc3ccc(-c5ccc(C(F)(F)F)cn5)cc3)C(=O)[C@@H](N)CS4(=O)=O)o2)C1 (stereo partly drawn) [Example 51, (3R)-3-amino-7-[5-(3-fluoro-1-methyl-3-piperidyl)-1,3,4-oxadiazol-2-yl]-1,1-dioxo-5-[[4-[5-(trifluoromethyl)-2-pyridyl]phenyl]methyl]-2,3-dihydro-1λ^6,5-benzothiazepin-4-one]
- Emax IL2 (% activation): 135 % activation
- EC50: 2490 nM

SMILES: N[C@H]1CS(=O)(=O)c2ccc(-c3nnc(C4(CO)CCCO4)o3)cc2N(Cc2ccc(-c3noc(C(F)(F)F)n3)cc2)C1=O (stereo partly drawn) [Example 54, (3R)-3-amino-7-[5-[2-(hydroxymethyl)tetrahydrofuran-2-yl]-1,3,4-oxadiazol-2-yl]-1,1-dioxo-5-[[4-[5-(trifluoromethyl)-1,2,4-oxadiazol-3-yl]phenyl]methyl]-2,3-dihydro-1λ^6,5-benzothiazepin-4-one]
- Emax IL2 (% activation): 126 % activation
- EC50: 3340 nM

SMILES: COC(=O)N1CC(c2nnc(-c3ccc4c(c3)N(Cc3ccc(-c5noc(C(C)(C)C)n5)cc3)C(=O)[C@@H](N)CS4(=O)=O)o2)CC(F)(F)C1 (stereo partly drawn) [Example 56, methyl 3,3-difluoro-5-[5-[(3R)-3-amino-5-[[4-(5-tert-butyl-1,2,4-oxadiazol-3-yl)phenyl]methyl]-1,1,4-trioxo-2,3-dihydro-1λ^6,5-benzothiazepin-7-yl]-1,3,4-oxadiazol-2-yl]piperidine-1-carboxylate]
- Emax IL2 (% activation): 109 % activation
- EC50: 940 nM

SMILES: COC(=O)N1CC(c2nnc(-c3ccc4c(c3)N(Cc3ccc(-c5ccc(C(F)(F)F)cc5)nc3)C(=O)[C@@H](N)CS4(=O)=O)o2)CC(F)(F)C1 (stereo partly drawn) [Example 57, methyl 3,3-difluoro-5-[5-[(3R)-3-amino-1,1,4-trioxo-5-[[6-[4-(trifluoromethyl)phenyl]-3-pyridyl]methyl]-2,3-dihydro-1λ^6,5-benzothiazepin-7-yl]-1,3,4-oxadiazol-2-yl]piperidine-1-carboxylate]
- Emax IL2 (% activation): 100 % activation
- EC50: 652 nM

SMILES: COC(=O)N1CC2CC(c3nnc(-c4ccc5c(c4)N(Cc4ccc(-c6ccc(C(F)(F)F)cc6)nc4)C(=O)[C@@H](N)CS5(=O)=O)o3)(C2)C1 [Example 58, methyl 1-[5-[(3R)-3-amino-1,1,4-trioxo-5-[[6-[4-(trifluoromethyl)phenyl]-3-pyridyl]methyl]-2,3-dihydro-1λ^6,5-benzothiazepin-7-yl]-1,3,4-oxadiazol-2-yl]-3-azabicyclo[3.1.1]heptane-3-carboxylate]
- Emax IL2 (% activation): 505 % activation
- EC50: 4710 nM

SMILES: N#CC1(c2nnc(-c3ccc4c(c3)N(Cc3ccc(-c5ccc(C(F)(F)F)cn5)cc3)C(=O)[C@@H](N)CS4(=O)=O)o2)CC1 [Example 62, 1-[5-[(3R)-3-amino-1,1,4-trioxo-5-[[4-[5-(trifluoromethyl)-2-pyridyl]phenyl]methyl]-2,3-dihydro-1λ^6,5-benzothiazepin-7-yl]-1,3,4-oxadiazol-2-yl]cyclopropane-carbonitrile]
- Emax IL2 (% activation): 110 % activation
- EC50: 2110 nM

SMILES: CCOC(F)(c1nnc(-c2ccc3c(c2)N(Cc2ccc(-c4noc(C(F)(F)F)n4)cc2)C(=O)[C@@H](N)CS3(=O)=O)o1)C(F)(F)F (stereo partly drawn) [Example 64, (3R)-3-amino-7-[5-(1-ethoxy-1,2,2,2-tetrafluoro-ethyl)-1,3,4-oxadiazol-2-yl]-1,1-dioxo-5-[[4-[5-(trifluoromethyl)-1,2,4-oxadiazol-3-yl]phenyl]methyl]-2,3-dihydro-1λ^6,5-benzothiazepin-4-one]
- Emax IL2 (% activation): 543 % activation
- EC50: 889 nM

SMILES: N[C@H]1CS(=O)(=O)c2ccc(-c3nnc(N4CCC(F)(F)CC4)o3)cc2N(Cc2ccc(-c3noc(C(F)(F)F)n3)cc2)C1=O [Example 68, (3R)-3-amino-7-[5-(4,4-difluoro-1-piperidyl)-1,3,4-oxadiazol-2-yl]-1,1-dioxo-5-[[4-[5-(trifluoromethyl)-1,2,4-oxadiazol-3-yl]phenyl]methyl]-2,3-dihydro-1λ^6,5-benzothiazepin-4-one]
- Emax IL2 (% activation): 351 % activation
- EC50: 1160 nM

SMILES: N[C@H]1CS(=O)(=O)c2ccc(-c3nnc(N4CCOC(F)(F)C4)o3)cc2N(Cc2ccc(-c3nnc(C(F)(F)F)o3)cc2)C1=O [Example 80]
- Emax IL2 (% activation): 360 % activation
- EC50: 3540 nM

SMILES: CC(C)(C)c1nnc(-c2ccc3c(c2)N(Cc2ccc(-n4nnc(C(F)(F)F)n4)cc2)C(=O)[C@@H](N)CS3(=O)=O)o1 [Example 90, (3R)-3-amino-7-(5-tert-butyl-1,3,4-oxadiazol-2-yl)-1,1-dioxo-5-[[4-[5-(trifluoromethyl)tetrazol-2-yl]phenyl]methyl]-2,3-dihydro-1λ^6,5-benzothiazepin-4-one]
- Emax IL2 (% activation): 159 % activation
- EC50: 1010 nM

SMILES: Cn1nc(C(F)(F)F)cc1-c1ccc(CN2C(=O)[C@@H](N)CS(=O)(=O)c3ccc(-c4nnc(C(C)(C)C)o4)cc32)cc1 [Example 92]
- Emax IL2 (% activation): 157 % activation
- EC50: 2000 nM

SMILES: CC(C)(C)c1nnc(-c2ccc3c(c2)N(Cc2ccc(-c4ncc(C(F)(F)F)o4)cc2)C(=O)[C@@H](N)CS3(=O)=O)o1 [Example 93, (3R)-3-amino-7-(5-tert-butyl-1,3,4-oxadiazol-2-yl)-1,1-dioxo-5-[[4-[5-(trifluoromethyl)oxazol-2-yl]phenyl]methyl]-2,3-dihydro-1λ^6,5-benzothiazepin-4-one]
- Emax IL2 (% activation): 279 % activation
- EC50: 202 nM

SMILES: NC(c1nnc(-c2ccc3c(c2)N(Cc2ccc(-c4noc(C(F)(F)F)n4)cc2)C(=O)[C@@H](N)CS3(=O)=O)o1)C(F)(F)F (stereo partly shown) [Example 94]
- Emax IL2 (% activation): 76 % activation
- EC50: 2660 nM

SMILES: CCC(O)(c1nnc(-c2ccc3c(c2)N(Cc2ccc(-c4noc(C(F)(F)F)n4)cc2)C(=O)[C@@H](N)CS3(=O)=O)o1)C(F)(F)F (stereo partly shown) [Example 95]
- Emax IL2 (% activation): 172 % activation
- EC50: 808 nM

SMILES: CC(C)(C#N)c1nnc(-c2ccc3c(c2)N(Cc2ccc(-c4cnc(C(F)(F)F)nc4)cc2)C(=O)[C@@H](N)CS3(=O)=O)o1 [Example 100]
- Emax IL2 (% activation): 100 % activation
- EC50: 3220 nM
